From patent publication US12552798B2, “Substituted imidazolecarboxamide as Bruton's tyrosine kinase inhibitors” (Henan Zhiwei Biomedicine Co., Ltd., priority 2019, dated 2026) come the findings set out here.

The IC50 is the concentration at which inhibition is half-maximal.

For one experiment, the system named is TMD8. Briefly: Cell antiproliferative activity assay (CellTiter-Glo), TMD8. The class given is cell-based. The following applies: read-out: Cell Growth IC50 (nM) TMD8. As to the method:
(§1) Cell Antiproliferative Activity Assay
(§2) Cell antiproliferative activity was evaluated by the CellTiter-Glo (Promega, USA) assay. Make 1000× compounds solution in DMSO, add 1 μl 1000× compounds to […] growth medium to make 20× compounds. Dilute cell suspensions in growth medium to desired density and 95 μl were taken to 96-well plate. Add 5 μl 20× compounds into 96-well plate according to the plate map. Final DMSO concentration in each well was 0.1%. Then the cell was incubated at 37° C., 5% CO2 for 72 hs. Equilibrate the assay plate to room temperature before measurement. Add 20 μl of CellTiter-Glo© Reagent into each well. Mix contents for 2 minutes on an orbital shaker to induce cell lysis. Incubate at room temperature for 10 minutes to stabilize luminescent signal. Record luminescence using EnVision Multilabel Reader (PerkinElmer). Cell viability (CV %) was calculated relative to vehicle (DMSO) treated control wells using following formula: Cell viability (%)=(RLU compound−RLU blank)/(RLU control−RLU blank)*100%. The IC50 values were calculated using GraphPad Prism 6.0 software, fitting to a 4-parameter equation to generate concentration response curves. All assays were conducted with three parallel samples and three repetitions.
On the technique in general: ATP-based viability assays read luminescence as a measure of living cells.

The target in the next experiment is BMX (Homo sapiens (Human), UniProt P51813). Briefly: BMX kinase inhibitory assay (ELISA). The class given is biochemical. The following applies: for Selectivity Ratio (BTK and BMX): BMX IC50 relative to BTK IC50; for IC50: ELISA, 3 μmol/L ATP. As to the method:
(§3) BTK, EGFR, BMX, or ITK Inhibitory Assay Procedure for BTK, BMX, EGFR and ITK Inhibitory Assay:
(§4) Kinase inhibitory activities of compounds were evaluated using the Enzyme-linked immunosorbent assay (ELISA). The kinase enzyme of BTK, BMX, EGFR and ITK were purchased from Carna Bioscience (Kobe, Japan). A total of 10 ng/mL antiphosphotyrosine (PY713) antibody (abcam, Cambridge Science Park, UK) was precoated in 96-well ELISA plates. The kinase enzymes in each reaction well were set to BTK (101.25 ng/mL), BMX (90 ng/mL), EGFR (90 ng/mL) or ITK (120 ng/mL) and incubated with indicated compounds in 1× reaction buffer (50 mmol/L HEPES pH 7.4, 20 mmol/L MgCl2, 0.1 mmol/L MnCl2, 1 mmol/L DTT) containing 20 μmol/L (the final concentration of substrate in ITK reaction was 30 μmol/L) substrate (NH2-ETVYSEVRK-biotin) at 25° C. for 1 h. Then, a total of 3 μmol/L ATP was added and the reaction was continued for 2 hrs. The products of reaction were transferred into 96-well ELISA plates containing antibody and incubated at 25° C. for 30 min. After incubation, the wells were washed with PBS and then incubated with horseradish peroxidase […]-conjugated streptavidin. The wells were visualized using 3,3′,5,5′-tetramethylbenzidine (TMB), and chromogenic reaction was ended with 2 mol/L H2SO4, the absorbance was read with a multimode plate reader (PerkinElmer, USA) at 450 nm. IC50 values and curve fits were obtained using Prism (GraphPad Software).

In a further experiment the target is BTK (Homo sapiens (Human), UniProt Q06187). In words: BTK kinase inhibitory assay (ELISA). In kind it is biochemical. As to conditions: 3 μmol/L ATP. As to the method: as §3, §4
(An ELISA detects its analyte on a solid surface through an enzyme-linked reagent.)

Another experiment relates to 293T. In words: Cell antiproliferative activity assay (CellTiter-Glo), 293T. In kind it is cell-based. As to conditions: 72 hs, read-out: Cell Growth IC50 (nM) 293T. Here is the method:
as §1, §2

The target in another experiment is ITK (Homo sapiens (Human), UniProt Q08881). Briefly: ITK kinase inhibitory assay (ELISA). As to conditions: for IC50: ELISA, 3 μmol/L ATP; for Selectivity Ratio (BTK and ITK): ITK IC50 relative to BTK IC50. The class given is biochemical. As to the method:
as §3, §4

The target of another experiment is EGFR (Homo sapiens (Human), UniProt P00533). In words: EGFR kinase inhibitory assay (ELISA). The class given is biochemical. As to conditions: for Selectivity Ratio (BTK and EGFR): EGFR IC50 relative to BTK IC50; for IC50: ELISA, 3 μmol/L ATP. As to the method: as §3, §4

Read-outs that look alike come from different tables or passages of the source.

Chain of EGFR (P00533 25-1210): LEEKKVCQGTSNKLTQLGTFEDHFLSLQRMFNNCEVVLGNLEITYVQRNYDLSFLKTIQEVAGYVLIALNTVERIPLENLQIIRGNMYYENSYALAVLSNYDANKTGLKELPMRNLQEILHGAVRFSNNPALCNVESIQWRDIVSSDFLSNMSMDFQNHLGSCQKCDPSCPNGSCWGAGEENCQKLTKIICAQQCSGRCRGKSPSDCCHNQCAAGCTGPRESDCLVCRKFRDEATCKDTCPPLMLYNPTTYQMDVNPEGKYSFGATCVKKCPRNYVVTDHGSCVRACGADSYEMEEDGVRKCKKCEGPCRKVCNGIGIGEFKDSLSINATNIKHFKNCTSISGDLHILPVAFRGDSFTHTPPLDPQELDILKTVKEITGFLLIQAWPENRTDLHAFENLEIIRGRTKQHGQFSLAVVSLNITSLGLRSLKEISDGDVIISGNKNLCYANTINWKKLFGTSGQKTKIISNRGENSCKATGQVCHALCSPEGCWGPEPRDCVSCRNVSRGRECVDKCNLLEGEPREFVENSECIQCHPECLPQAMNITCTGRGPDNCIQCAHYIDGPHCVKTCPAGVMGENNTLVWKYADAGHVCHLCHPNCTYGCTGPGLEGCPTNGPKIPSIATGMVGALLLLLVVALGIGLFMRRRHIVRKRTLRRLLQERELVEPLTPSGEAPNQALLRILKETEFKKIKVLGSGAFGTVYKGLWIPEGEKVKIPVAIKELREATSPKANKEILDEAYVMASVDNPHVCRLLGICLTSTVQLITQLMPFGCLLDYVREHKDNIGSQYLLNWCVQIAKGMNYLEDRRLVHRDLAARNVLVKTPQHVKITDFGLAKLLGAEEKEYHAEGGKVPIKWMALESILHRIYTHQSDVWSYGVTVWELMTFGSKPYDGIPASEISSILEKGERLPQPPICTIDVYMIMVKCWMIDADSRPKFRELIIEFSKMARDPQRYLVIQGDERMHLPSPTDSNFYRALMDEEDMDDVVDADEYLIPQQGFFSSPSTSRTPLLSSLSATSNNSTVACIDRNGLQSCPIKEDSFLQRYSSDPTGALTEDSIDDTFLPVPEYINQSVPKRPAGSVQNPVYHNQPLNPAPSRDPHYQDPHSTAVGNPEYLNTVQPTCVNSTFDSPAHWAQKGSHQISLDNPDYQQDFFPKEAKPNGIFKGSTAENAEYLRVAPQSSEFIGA
Chain of ITK (Q08881 whole entry): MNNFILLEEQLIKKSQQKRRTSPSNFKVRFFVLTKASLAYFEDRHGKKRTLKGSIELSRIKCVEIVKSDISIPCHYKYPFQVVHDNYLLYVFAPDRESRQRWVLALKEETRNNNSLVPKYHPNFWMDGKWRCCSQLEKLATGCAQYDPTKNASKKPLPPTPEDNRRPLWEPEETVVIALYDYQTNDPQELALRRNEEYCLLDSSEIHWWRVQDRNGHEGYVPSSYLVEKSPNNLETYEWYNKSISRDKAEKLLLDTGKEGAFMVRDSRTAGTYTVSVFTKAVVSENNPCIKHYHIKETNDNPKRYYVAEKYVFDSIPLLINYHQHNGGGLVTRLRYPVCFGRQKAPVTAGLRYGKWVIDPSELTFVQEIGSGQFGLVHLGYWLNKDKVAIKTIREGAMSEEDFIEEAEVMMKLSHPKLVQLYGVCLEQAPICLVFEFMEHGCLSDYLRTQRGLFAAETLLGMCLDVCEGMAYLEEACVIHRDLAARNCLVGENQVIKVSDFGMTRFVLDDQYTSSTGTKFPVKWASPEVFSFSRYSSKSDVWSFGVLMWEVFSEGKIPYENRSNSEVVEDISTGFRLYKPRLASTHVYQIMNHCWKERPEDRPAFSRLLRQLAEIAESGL
Chain of BTK (Q06187 whole entry): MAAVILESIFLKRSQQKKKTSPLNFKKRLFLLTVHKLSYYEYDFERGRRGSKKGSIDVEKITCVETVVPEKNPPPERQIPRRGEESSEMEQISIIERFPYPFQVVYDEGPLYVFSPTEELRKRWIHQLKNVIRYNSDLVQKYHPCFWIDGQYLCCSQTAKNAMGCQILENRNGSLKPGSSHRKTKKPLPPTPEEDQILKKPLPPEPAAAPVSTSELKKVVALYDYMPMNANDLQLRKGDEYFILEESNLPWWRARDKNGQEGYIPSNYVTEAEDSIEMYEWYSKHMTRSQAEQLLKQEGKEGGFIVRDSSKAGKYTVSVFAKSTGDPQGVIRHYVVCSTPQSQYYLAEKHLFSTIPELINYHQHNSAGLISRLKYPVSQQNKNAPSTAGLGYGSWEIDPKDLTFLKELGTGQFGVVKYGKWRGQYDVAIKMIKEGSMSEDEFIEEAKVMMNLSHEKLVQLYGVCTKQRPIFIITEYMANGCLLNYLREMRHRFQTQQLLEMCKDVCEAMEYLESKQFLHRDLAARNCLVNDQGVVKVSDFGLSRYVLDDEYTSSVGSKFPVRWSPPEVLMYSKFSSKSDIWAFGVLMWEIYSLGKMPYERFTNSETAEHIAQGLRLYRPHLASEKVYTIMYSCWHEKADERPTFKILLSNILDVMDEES
Chain of BMX (P51813 whole entry): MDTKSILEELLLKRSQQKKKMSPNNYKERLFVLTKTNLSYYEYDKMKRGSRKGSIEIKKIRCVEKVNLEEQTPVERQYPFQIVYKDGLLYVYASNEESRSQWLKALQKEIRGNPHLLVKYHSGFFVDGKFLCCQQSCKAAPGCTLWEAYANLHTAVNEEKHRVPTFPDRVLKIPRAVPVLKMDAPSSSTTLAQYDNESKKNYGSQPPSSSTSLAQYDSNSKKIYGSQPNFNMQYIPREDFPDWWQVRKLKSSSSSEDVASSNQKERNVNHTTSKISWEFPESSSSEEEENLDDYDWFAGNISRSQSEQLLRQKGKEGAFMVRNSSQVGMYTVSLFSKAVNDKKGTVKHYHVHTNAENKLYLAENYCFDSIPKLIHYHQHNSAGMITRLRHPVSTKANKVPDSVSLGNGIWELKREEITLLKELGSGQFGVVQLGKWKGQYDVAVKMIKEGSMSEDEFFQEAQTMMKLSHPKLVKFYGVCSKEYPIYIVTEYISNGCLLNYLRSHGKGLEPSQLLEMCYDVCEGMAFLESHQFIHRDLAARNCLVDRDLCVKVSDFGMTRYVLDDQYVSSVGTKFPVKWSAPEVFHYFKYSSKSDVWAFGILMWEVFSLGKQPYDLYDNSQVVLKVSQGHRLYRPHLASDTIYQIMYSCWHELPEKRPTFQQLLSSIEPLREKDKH

Regarding `C=CC(=O)N1CCC(C2CCNn3c2nc(-c2ccc(Oc4ccccc4)cc2)c3C(N)=O)CC1` (single isomer, unassigned) [1b (peak 2)], the IC50 with TMD8 (TMD8, 72 hs) was 102 nM; at BMX, 53.9 nM; on BTK, 28.9 nM; in the experiment with 293T, 5240 nM; against ITK, above 30000 nM; against EGFR it was 170 nM. Moreover, the “Selectivity Ratio (BTK and BMX)” value at BMX was 1.86. The “Selectivity Ratio (BTK and ITK)” value at ITK is given as above 1038. Moreover, on EGFR, the “Selectivity Ratio (BTK and EGFR)” value is given as 5.87.

As for `C=CC(=O)N1CCC(C2CCNn3c2nc(-c2ccc(Oc4ccccc4)cc2)c3C(N)=O)CC1` (stereo not shown) [Example 1, 8-(1-acryloylpiperidin-4-yl)-2-(4-phenoxyphenyl)-5,6,7,8-tetrahydroimidazo[1,2-b]pyridazine-3-carboxamide], the IC50 in the experiment on TMD8 (Homo sapiens, TMD8, TMD8, 72 hs) was 12.3 nM; against BMX, 26.7 nM; against BTK, 4.6 nM; in the experiment with 293T (Homo sapiens, HEK-293T) it was 573000 nM; against ITK, 13600 nM; at EGFR it was 89.6 nM. Further, the “Selectivity Ratio (BTK and BMX)” value on BMX worked out at 5.80. For the same compound, the “Selectivity Ratio (BTK and ITK)” value on ITK was determined as 2945. In addition, the “Selectivity Ratio (BTK and EGFR)” value at EGFR turned out to be 19.48.

The compound `CC#CC(=O)N1CCC(C2CCNn3c2nc(-c2ccc(Oc4ccccc4)cc2)c3C(N)=O)CC1` (stereo not shown) [Example 2, 8-[1-(1-Oxo-but-2-ynyl)-piperidin-4-yl]-2-(4-phenoxy-phenyl)-5,6,7,8-tetrahydro-imidazo[1,2-b]pyridazine-3-carboxamide] had an IC50 on BTK of 76.4 nM.

At BTK, `N#C/C(=C\C1CC1)C(=O)N1CCC(C2CCNn3c2nc(-c2ccc(Oc4ccccc4)cc2)c3C(N)=O)CC1` (stereo not shown) [Example 8, 8-[1-(2-Cyano-3-cyclopropyl-acryloyl)-piperidin-4-yl]-2-(4-phenoxy-phenyl)-5,6,7,8-tetrahydro-imidazo[1,2-b]pyridazine-3-carboxamide] gave an IC50 of 285 nM.

On BTK, `C=CC(=O)N1CCC(C2CCNn3c2nc(-c2ccc(Oc4ccc(F)cc4)cc2)c3C(N)=O)CC1` (stereo not shown) [Example 12, 8-(1-acryloylpiperidin-4-yl)-2-(4-(4-fluorophenoxy)phenyl)-5,6,7,8-tetrahydroimidazo[1,2-b]pyridazine-3-carboxamide] yielded an IC50 of 49.4 nM.

`CC#CC(=O)N1CCC(C2CCNn3c2nc(-c2ccc(Oc4ccc(F)cc4)cc2)c3C(N)=O)CC1` (stereo not shown) [Example 13, 8-(1-(but-2-ynoyl)piperidin-4-yl)-2-(4-(4-fluorophenoxy)phenyl)-5,6,7,8-tetrahydroimidazo[1,2-b]pyridazine-3-carboxamide] came in with an IC50 at BTK of 122 nM.

On BTK, `NC(=O)c1c(-c2ccc(Oc3ccc(F)cc3)cc2)nc2n1NCCC2C1CCN(C(=O)/C=C/C(F)(F)F)CC1` (stereo not shown) [Example 14, (E)-2-(4-(4-fluorophenoxy)phenyl)-8-(1-(4,4,4-trifluorobut-2-enoyl)piperidin-4-yl)-5,6,7,8-tetrahydroimidazo[1,2-b]pyridazine-3-carboxamide] returned an IC50 of 61.5 nM.

On BTK, `C=CC(=O)N1CCC(C2CCNn3c2nc(-c2ccc(Oc4ccc(OC)cc4)cc2)c3C(N)=O)CC1` (stereo not shown) [Example 15, 8-(1-acryloylpiperidin-4-yl)-2-(4-(4-methoxyphenoxy)phenyl)-5,6,7,8-tetrahydroimidazo[1,2-b]pyridazine-3-carboxamide] returned an IC50 of 42.6 nM.

At BTK, `CC#CC(=O)N1CCC(C2CCNn3c2nc(-c2ccc(Oc4ccc(OC)cc4)cc2)c3C(N)=O)CC1` (stereo not shown) [Example 16, 8-(1-(but-2-ynoyl)piperidin-4-yl)-2-(4-(4-methoxyphenoxy)phenyl)-5,6,7,8-tetrahydroimidazo[1,2-b]pyridazine-3-carboxamide] came in with an IC50 of 778 nM.

The compound `COc1ccc(Oc2ccc(-c3nc4n(c3C(N)=O)NCCC4C3CCN(C(=O)/C=C/C(F)(F)F)CC3)cc2)cc1` (stereo not shown) [Example 17, (E)-2-(4-(4-methoxyphenoxy)phenyl)-8-(1-(4,4,4-trifluorobut-2-enoyl)piperidin-4-yl)-5,6,7,8-tetrahydroimidazo[1,2-b]pyridazine-3-carboxamide] yielded an IC50 against BTK of 212 nM.

Take `C=CC(=O)N1CC(C2CCNn3c2nc(-c2ccc(Oc4ccccc4)cc2)c3C(N)=O)C1` (stereo not shown) [Example 18, 8-(1-acryloylazetidin-3-yl)-2-(4-phenoxyphenyl)-5,6,7,8-tetrahydroimidazo[1,2-b]pyridazine-3-carboxamide]: the IC50 at BTK was determined as 37.4 nM.

The compound `C=CC(=O)N1CCC(C2CCNn3c2nc(-c2ccc(Oc4ccccc4)cc2)c3C(N)=O)C1` (stereo not shown) [Example 21, 8-(1-acryloylpyrrolidin-3-yl)-2-(4-phenoxyphenyl)-5,6,7,8-tetrahydroimidazo[1,2-b]pyridazine-3-carboxamide] gave a 50% inhibitory concentration (IC50) against BTK of 132 nM.

As to `C=CC(=O)Nc1ccccc1C1CCNn2c1nc(-c1ccc(Oc3ccccc3)cc1)c2C(N)=O` (stereo not shown) [Example 22, 8-(2-acrylamidophenyl)-2-(4-phenoxyphenyl)-5,6,7,8-tetrahydroimidazo[1,2-b]pyridazine-3-carboxamide], at BMX, the “Selectivity Ratio (BTK and BMX)” value was 11.94; it took 64.5 nM to reach half-maximal inhibition (IC50). Besides, half-maximal inhibition against BTK (IC50) required 5.4 nM. For the same compound, at ITK, half-maximal inhibition (IC50) was put at 27900 nM; the “Selectivity Ratio (BTK and ITK)” value was 5160.6. For the same compound, at EGFR, the “Selectivity Ratio (BTK and EGFR)” value amounted to 3.05; half-maximal inhibition (IC50) was put at 16.5 nM.

In the case of `CN(C)C/C=C/C(=O)N1CCC(C2CCNn3c2nc(-c2ccc(Oc4ccccc4)cc2)c3C(N)=O)CC1` (stereo not shown) [Example 25, (E)-8-(1-(4-(dimethylamino)but-2-enoyl)piperidin-4-yl)-2-(4-phenoxyphenyl)-5,6,7,8-tetrahydroimidazo[1,2-b]pyridazine-3-carboxamide], on BTK, half-maximal inhibition (IC50) required 185 nM.

For `C=CC(=O)N1CCC(C2CCn3c2nc(-c2ccc(Oc4ccccc4)cc2)c3C(N)=O)CC1` (stereo not shown) [Example 26, 7-(1-acryloylpiperidin-4-yl)-2-(4-phenoxyphenyl)-6,7-dihydro-5H-pyrrolo[1,2-a]imidazole-3-carboxamide], at BMX, the “Selectivity Ratio (BTK and BMX)” value is 3.70; the IC50 was 31.1 nM. The compound also yielded an IC50 on BTK of 8.4 nM. Moreover, on ITK, the IC50 is 4660 nM; the “Selectivity Ratio (BTK and ITK)” value was determined as 555.2. At EGFR, the “Selectivity Ratio (BTK and EGFR)” value was 9.75; 81.9 nM corresponded to half-maximal inhibition (IC50).

For the compound `C=CC(=O)N1CCC(C2CCNn3c2nc(-c2ccc(OC)cc2)c3C(N)=O)CC1` (stereo not shown) [Example 27, 8-(1-acryloylpiperidin-4-yl)-2-(4-methoxyphenyl)-5,6,7,8-tetrahydroimidazo[1,2-b]pyridazine-3-carboxamide], half-maximal inhibition on BTK (IC50) required 242 nM.

Take `C=CC(=O)N1CCC(C2CCn3c2nc(-c2ccc(Oc4ccccc4)c(OC)c2)c3C(N)=O)CC1` (stereo not shown) [Example 28, 7-(1-acryloylpiperidin-4-yl)-2-(3-methoxy-4-phenoxyphenyl)-6,7-dihydro-5H-pyrrolo[1,2-a]imidazole-3-carboxamide]: on BMX, the “Selectivity Ratio (BTK and BMX)” value was determined as 7.51; 80.3 nM corresponded to half-maximal inhibition (IC50). At BTK, this compound registered an IC50 of 10.7 nM. Besides, on ITK, the IC50 is above 30000 nM; the “Selectivity Ratio (BTK and ITK)” value is above 2803.7. For the same compound, at EGFR, the “Selectivity Ratio (BTK and EGFR)” value stood at 35.66; 382 nM corresponded to half-maximal inhibition (IC50).

`C=CC(=O)N1CCC(C2CCNn3c2nc(-c2ccc(Oc4ccccc4)c(OC)c2)c3C(N)=O)CC1` (stereo not shown) [Example 29, 8-(1-acryloylpiperidin-4-yl)-2-(3-methoxy-4-phenoxyphenyl)-5,6,7,8-tetrahydroimidazo[1,2-b]pyridazine-3-carboxamide] registered an IC50 against BTK of 46.5 nM.
